Values after ≈ are worked out from the molar mass of the structure shown. *1 amine or outer side, *2 acyl side, *3 side chain or, on linkers, in order; H or OH if unused. Where a SMILES comes first, the peptide text is derived from it. Side-chain parts run from the residue outwards. [ ]: non-standard residue; d: D form. The star is where a group is joined. γGlu = O=C(O)[C@H](CCC(=O)[*:2])N[*:1]; Stearoyl = CCCCCCCCCCCCCCCCCC(=O)*; Palmitoyl = CCCCCCCCCCCCCCCC(=O)*; Aib = CC(C)(N)C(=O)O; βAla = NCCC(=O)O
Columns and labels:
[1] = Solubility testing in buffer (HPLC-UV); conditions: buffer
[2] = Chemical stability in solution, 7 days at 25° C. (% remaining peptide); conditions: % remaining peptide after 7 days at 25° C.
Method: After that time course, the sample was centrifuged for 20 min at 4000 rpm and the supernatant was analysed with HPLC-UV. For determination of the amount of the remaining peptide, the peak areas of the target compound at t0 and t7 were compared, resulting in “% remaining peptide”, following the equation % remaining peptide=[(peak area peptide t7)×100]/peak area peptide t0.
The chemical stability is expressed as “% remaining peptide”.

human GLP-1 receptor = target: T1, human GLP-1 receptor (Homo sapiens, UniProt P43220); assay: cAMP response (HTRF) of HEK-293 cells stably expressing human GLP-1 receptor; format: cell-based; conditions: Table 7; cAMP formation; read-out: EC50 hGLP-1 R
T1 construct: expressed in transfected cells
T1 sequence (P43220 24-463): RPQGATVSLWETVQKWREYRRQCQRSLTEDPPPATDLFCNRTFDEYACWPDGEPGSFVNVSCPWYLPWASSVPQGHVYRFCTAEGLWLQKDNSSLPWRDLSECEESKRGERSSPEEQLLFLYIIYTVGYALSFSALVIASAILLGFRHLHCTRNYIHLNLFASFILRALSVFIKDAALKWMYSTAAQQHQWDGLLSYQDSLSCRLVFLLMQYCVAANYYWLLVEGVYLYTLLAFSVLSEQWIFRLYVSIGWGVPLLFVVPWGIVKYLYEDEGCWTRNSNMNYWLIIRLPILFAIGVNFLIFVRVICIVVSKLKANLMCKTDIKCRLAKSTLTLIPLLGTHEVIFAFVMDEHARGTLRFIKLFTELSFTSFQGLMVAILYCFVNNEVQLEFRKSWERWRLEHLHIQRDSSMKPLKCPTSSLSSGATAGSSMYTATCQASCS
Method: cAMP content of cells was determined using a kit from Cisbio Corp. (cat. no. 62AM4PEC) based on HTRF (Homogenous Time Resolved Fluorescence). For preparation, cells were split into T175 culture flasks and grown overnight to near confluency in medium (DMEM/10% FBS). Medium was then removed and cells washed with PBS lacking calcium and magnesium, followed by proteinase treatment with accutase (Sigma-Aldrich cat. no. A6964). Detached cells were washed and resuspended in assay buffer (1×HBSS; 20 mM HEPES, 0.1% BSA, 2 mM IBMX) and cellular density determined. They were then diluted to 400000 cells/ml and 25 μl-aliquots dispensed into the wells of 96-well plates. For measurement, 25 μl of test compound in assay buffer was added to the wells, followed by incubation for 30 minutes at room temperature.

[3] = Pharmacokinetic testing in mice, s.c.; conditions: mouse, plasma, sc, 1 mg/kg
Method: Mice were dosed 1 mg/kg subcutaneously (s.c.). The mice were sacrified and blood samples were collected after 0.25, 0.5, 1, 2, 4, 8, 16 and 24 hours post application. Plasma samples were analyzed after protein precipitation via liquid chromatography mass spectrometry (LC/MS). PK parameters and half-life were calculated using WinonLin Version 5.2.1 (non-compartment model).

Compound	solubility at 2 h ([1]; pH 4.5) [µg/mL]	solubility at 2 h ([1]; pH 7.4) [µg/mL]	Stability (pH 4.5) [2] [%]	Stability (pH 7.4) [2] [%]	EC50 (human GLP-1 receptor) [pM]	Cmax [3] [ng/mL]	half-life [3] [h]
CCCCCCCCCCCCCCCC(=O)N[C@@H](CCC(=O)NCCCC[C@H](NC(=O)[C@H](CCC(N)=O)NC(=O)[C@@H](NC(=O)[C@H](CO)NC(=O)[C@H](CC(C)C)NC(=O)[C@H](CC(=O)O)NC(=O)[C@H](CO)NC(=O)[C@@H](NC(=O)[C@H](Cc1ccccc1)NC(=O)[C@@H](NC(=O)CNC(=O)[C@H](CCC(=O)O)NC(=O)C(C)(C)NC(=O)[C@@H](N)Cc1ccc(O)cc1)[C@@H](C)O)[C@@H](C)O)[C@@H](C)CC)C(=O)N[C@@H](CC(=O)O)C(=O)N[C@@H](CCCCN)C(=O)N[C@@H](CCCNC(=N)N)C(=O)N[C@@H](C)C(=O)N[C@@H](C)C(=O)N[C@@H](CCC(N)=O)C(=O)N[C@@H](CC(=O)O)C(=O)N[C@@H](Cc1ccccc1)C(=O)N[C@H](C(=O)N[C@@H](CCC(=O)O)C(=O)N[C@@H](Cc1c[nH]c2ccccc12)C(=O)N[C@@H](CC(C)C)C(=O)N[C@@H](CCCCN)C(=O)N[C@@H](C)C(=O)NCC(=O)NCC(=O)N1CCC[C@H]1C(=O)N[C@@H](CO)C(=O)N[C@@H](CO)C(=O)NCC(=O)N[C@@H](C)C(=O)N1CCC[C@H]1C(=O)N1CCC[C@H]1C(=O)N1CCC[C@H]1C(=O)N[C@@H](CO)C(N)=O)[C@@H](C)CC)C(=O)O [SEQ ID NO: 31, Y-Aib-E-G-T-F-T-S-D-L-S-I-Q-K(γE-x53)-DKRAAQDFIEWLKAGGPSSGAPPPS-NH2]	> 1000	> 1000	94.0	96.0	6	–	–
CCCCCCCCCCCCCCCCCC(=O)NCCC(=O)NCCC(=O)NCCCC[C@H](NC(=O)[C@H](CCC(N)=O)NC(=O)[C@@H](NC(=O)[C@H](CO)NC(=O)[C@H](CC(C)C)NC(=O)[C@H](CC(=O)O)NC(=O)[C@H](CO)NC(=O)[C@@H](NC(=O)[C@H](Cc1ccccc1)NC(=O)[C@@H](NC(=O)CNC(=O)[C@H](CCC(=O)O)NC(=O)C(C)(C)NC(=O)[C@@H](N)Cc1ccc(O)cc1)[C@@H](C)O)[C@@H](C)O)[C@@H](C)CC)C(=O)N[C@@H](CCC(=O)O)C(=O)N[C@@H](CCCCN)C(=O)N[C@@H](CCCNC(=N)N)C(=O)N[C@@H](C)C(=O)N[C@@H](C)C(=O)NC(C)(C)C(=O)N[C@@H](CCC(=O)O)C(=O)N[C@@H](Cc1ccccc1)C(=O)N[C@H](C(=O)N[C@@H](CCC(=O)O)C(=O)N[C@@H](Cc1c[nH]c2ccccc12)C(=O)N[C@@H](CC(C)C)C(=O)N[C@@H](CCCCN)C(=O)N[C@@H](CC(N)=O)C(=O)N[C@H](C(=O)NCC(=O)N1CCC[C@H]1C(=O)N[C@@H](CO)C(=O)N[C@@H](CO)C(=O)NCC(=O)N[C@@H](C)C(=O)N1CCC[C@H]1C(=O)N1CCC[C@H]1C(=O)N1CCC[C@H]1C(=O)N[C@@H](CO)C(N)=O)[C@@H](C)O)[C@@H](C)CC [SEQ ID NO: 18, Y-Aib-E-G-T-F-T-S-D-L-S-I-Q-K(βA-βA-x70)-E-K-R-A-A-Aib-E-F-I-E-W-L-K-N-T-G-P-S-S-G-A-P-P-P-S-NH2] (H-Y[Aib]EGTFTSDLSIQK([βAla-βAla-Stearoyl])EKRAA[Aib]EFIEWLKNTGPSSGAPPPS-NH2)	–	–	–	–	7.6	5750	2.1
CCCCCCCCCCCCCCCC(=O)N[C@@H](CCC(=O)NCCCC[C@H](NC(=O)[C@H](CCC(N)=O)NC(=O)[C@@H](NC(=O)[C@H](CO)NC(=O)[C@H](CC(C)C)NC(=O)[C@H](CC(=O)O)NC(=O)[C@H](CO)NC(=O)[C@@H](NC(=O)[C@H](Cc1ccccc1)NC(=O)[C@@H](NC(=O)CNC(=O)[C@H](CCC(=O)O)NC(=O)C(C)(C)NC(=O)[C@@H](N)Cc1ccc(O)cc1)[C@@H](C)O)[C@@H](C)O)[C@@H](C)CC)C(=O)N[C@@H](CCC(=O)O)C(=O)N[C@@H](CO)C(=O)N[C@@H](CCCNC(=N)N)C(=O)N[C@@H](C)C(=O)N[C@@H](C)C(=O)NC(C)(C)C(=O)N[C@@H](CCC(=O)O)C(=O)N[C@@H](Cc1ccccc1)C(=O)N[C@H](C(=O)N[C@@H](CCC(=O)O)C(=O)N[C@@H](Cc1c[nH]c2ccccc12)C(=O)N[C@@H](CC(C)C)C(=O)N[C@@H](CCCCN)C(=O)N[C@@H](C)C(=O)NCC(=O)NCC(=O)N1CCC[C@H]1C(=O)N[C@@H](CO)C(=O)N[C@@H](CO)C(=O)NCC(=O)N[C@@H](C)C(=O)N1CCC[C@H]1C(=O)N1CCC[C@H]1C(=O)N1CCC[C@H]1C(=O)N[C@@H](CO)C(N)=O)[C@@H](C)CC)C(=O)O [SEQ ID NO: 35, Y-Aib-E-G-T-F-T-S-D-L-S-I-Q-K(γE-x53)-E-S-R-A-A-Aib-E-F-I-E-W-L-K-A-G-G-P-S-S-G-A-P-P-P-S-NH2] (H-Y[Aib]EGTFTSDLSIQK([γGlu-Palmitoyl])ESRAA[Aib]EFIEWLKAGGPSSGAPPPS-NH2)	424 (≈ 95.4 µM)	> 1000	100.0	98.0	6.9	–	–
CCCCCCCCCCCCCCCCCC(=O)N[C@@H](CCC(=O)NCCCC[C@H](NC(=O)[C@H](CCC(N)=O)NC(=O)[C@@H](NC(=O)[C@H](CO)NC(=O)[C@H](CC(C)C)NC(=O)[C@H](CC(=O)O)NC(=O)[C@H](CO)NC(=O)[C@@H](NC(=O)[C@H](Cc1ccccc1)NC(=O)[C@@H](NC(=O)CNC(=O)[C@H](CCC(=O)O)NC(=O)C(C)(C)NC(=O)[C@@H](N)Cc1ccc(O)cc1)[C@@H](C)O)[C@@H](C)O)[C@@H](C)CC)C(=O)N[C@@H](CCC(=O)O)C(=O)N[C@@H](CCCCN)C(=O)N[C@@H](CCCNC(=N)N)C(=O)N[C@@H](C)C(=O)N[C@@H](C)C(=O)NC(C)(C)C(=O)N[C@@H](CCC(=O)O)C(=O)N[C@@H](Cc1ccccc1)C(=O)N[C@H](C(=O)N[C@@H](CCC(=O)O)C(=O)N[C@@H](Cc1c[nH]c2ccccc12)C(=O)N[C@@H](CC(C)C)C(=O)N[C@@H](CCCCN)C(=O)N[C@@H](CC(N)=O)C(=O)N[C@H](C(=O)NCC(=O)N1CCC[C@H]1C(=O)N[C@@H](CO)C(=O)N[C@@H](CO)C(=O)NCC(=O)N[C@@H](C)C(=O)N1CCC[C@H]1C(=O)N1CCC[C@H]1C(=O)N1CCC[C@H]1C(=O)N[C@@H](CO)C(N)=O)[C@@H](C)O)[C@@H](C)CC)C(=O)O [SEQ ID NO: 15, Y-Aib-E-G-T-F-T-S-D-L-S-I-Q-K(γE-x70)-E-K-R-A-A-Aib-E-F-I-E-W-L-K-N-T-G-P-S-S-G-A-P-P-P-S-NH2] (H-Y[Aib]EGTFTSDLSIQK([γGlu-Stearoyl])EKRAA[Aib]EFIEWLKNTGPSSGAPPPS-NH2)	997 (≈ 216 µM)	> 1000	91.0	90.0	–	5000	3.5
CCCCCCCCCCCCCCCC(=O)N[C@@H](CCC(=O)NCCCC[C@H](NC(=O)[C@H](CCC(N)=O)NC(=O)[C@@H](NC(=O)[C@H](CO)NC(=O)[C@H](CC(C)C)NC(=O)[C@H](CC(=O)O)NC(=O)[C@H](CO)NC(=O)[C@@H](NC(=O)[C@H](Cc1ccccc1)NC(=O)[C@@H](NC(=O)CNC(=O)[C@H](CCC(=O)O)NC(=O)C(C)(C)NC(=O)[C@@H](N)Cc1ccc(O)cc1)[C@@H](C)O)[C@@H](C)O)[C@@H](C)CC)C(=O)N[C@@H](CCC(=O)O)C(=O)N[C@@H](CCCCN)C(=O)N[C@@H](CCCNC(=N)N)C(=O)N[C@@H](C)C(=O)N[C@@H](C)C(=O)N[C@@H](CCC(N)=O)C(=O)N[C@@H](CCC(=O)O)C(=O)N[C@@H](Cc1ccccc1)C(=O)N[C@H](C(=O)N[C@@H](CCC(=O)O)C(=O)N[C@@H](Cc1c[nH]c2ccccc12)C(=O)N[C@@H](CC(C)C)C(=O)N[C@@H](CCCCN)C(=O)N[C@@H](CC(N)=O)C(=O)N[C@H](C(=O)NCC(=O)N1CCC[C@H]1C(=O)N[C@@H](CO)C(=O)N[C@@H](CO)C(=O)NCC(=O)N[C@@H](C)C(=O)N1CCC[C@H]1C(=O)N1CCC[C@H]1C(=O)N1CCC[C@H]1C(=O)N[C@@H](CO)C(N)=O)[C@@H](C)O)[C@@H](C)CC)C(=O)O [SEQ ID NO: 26, Y-Aib-E-G-T-F-T-S-D-L-S-I-Q-K(γE-x53)-EKRAAQEFIEWLKNTGPSSGAPPPS-NH2] (H-Y[Aib]EGTFTSDLSIQK([γGlu-Palmitoyl])EKRAAQEFIEWLKNTGPSSGAPPPS-NH2)	–	–	–	–	4.9	3120	3.7
CCCCCCCCCCCCCCCC(=O)N[C@@H](CCC(=O)NCCCC[C@H](NC(=O)[C@H](CCC(N)=O)NC(=O)[C@@H](NC(=O)[C@H](CO)NC(=O)[C@H](CC(C)C)NC(=O)[C@H](CC(=O)O)NC(=O)[C@H](CO)NC(=O)[C@@H](NC(=O)[C@H](Cc1ccccc1)NC(=O)[C@@H](NC(=O)CNC(=O)[C@H](CCC(N)=O)NC(=O)C(C)(C)NC(=O)[C@@H](N)Cc1ccc(O)cc1)[C@@H](C)O)[C@@H](C)O)[C@@H](C)CC)C(=O)N[C@@H](CC(=O)O)C(=O)N[C@@H](CCCCN)C(=O)N[C@@H](CCCNC(=N)N)C(=O)N[C@@H](C)C(=O)N[C@@H](C)C(=O)N[C@@H](CCC(N)=O)C(=O)N[C@@H](CC(=O)O)C(=O)N[C@@H](Cc1ccccc1)C(=O)N[C@H](C(=O)N[C@@H](CCC(=O)O)C(=O)N[C@@H](Cc1c[nH]c2ccccc12)C(=O)N[C@@H](CC(C)C)C(=O)N[C@@H](CCCCN)C(=O)N[C@@H](C)C(=O)NCC(=O)NCC(=O)N1CCC[C@H]1C(=O)N[C@@H](CO)C(=O)N[C@@H](CO)C(=O)NCC(=O)N[C@@H](C)C(=O)N1CCC[C@H]1C(=O)N1CCC[C@H]1C(=O)N1CCC[C@H]1C(=O)N[C@@H](CO)C(N)=O)[C@@H](C)CC)C(=O)O [SEQ ID NO: 28, Y-Aib-Q-G-T-F-T-S-D-L-S-I-Q-K(γE-x53)-DKRAAQDFIEWLKAGGPSSGAPPPS-NH2] (H-Y[Aib]QGTFTSDLSIQK([γGlu-Palmitoyl])DKRAAQDFIEWLKAGGPSSGAPPPS-NH2)	–	–	–	–	3.2	–	–
